Experimental findings from patent publication EP0431327B1, “Synthetic vaccine for the specific induction of cytotoxic T-lymphocytes” (HOECHST AKTIENGESELLSCHAFT, priority 1989, dated 1991) are described below.

This assay concerns Influenza-Virus A/PR/8. The assay can be described thus: Protection of immunised mice against intranasal influenza virus infection (survival, body weight). It counts as in vivo, BALB/c-Inzuchtmäuse. The procedure: Unter SPF-Bedingungen gezüchtete, 3 Monate alte BALB/c-Inzuchtmäuse wurden intravenös mit 100 µg Pam₃cys-Ser-Ser-[NP 147-158] immunisiert. (100 µg Pam₃Cys-Ser-Ser-[NP 147-158], aufgenommen in 300 µl PBS, 1 min beschallt). Nach 28 Tagen wurden die Mäuse mit 0,2 bzw. 0,4 haemagglutinierenden Einheiten Influenza-Virus A/PR/8 intranasal infiziert. Analog wurden zur Kontrolle Mäuse infiziert, denen 300 µl PBS intravenös appliziert wurde. Der Verlauf der Infektion wurde anhand von täglichen Gewichtskontrollen und der Überlebensrate kontrolliert. 11 von 12 Kontrolltieren, die mit 0,4 haemagglutinierenden Einheiten infiziert wurden, starben nach 11 Tagen an der Virusinfektion, während von den immunisierten Tieren nur 4 von 12 starben.
Eine weitere Kontrollgruppe und eine mit Pam₃Cys-Ser-Ser-[NP 147-158] immunisierte Gruppe wurden mit 0,2 haemagglutinierenden Einheiten Influenza-Virus infiziert. Nach 18 Tagen lebten noch 40 % der Kontrolltiere (4 von 10 Tieren), während 75 % der immunisierten Tiere lebten. Am Tag 18 betrug die Gewichtsdifferenz zwischen immunisierten Tieren und Kontrolltieren 4 g.

Take “N-Palmitoyl-S-[2,3-(bispalmitoyloxy)-propyl]cysteinyl-seryl-seryl-NP 147-158 [Pam₃Cys-Ser-Ser-[NP 147-158]]”: the “Verlauf der Infektion (Gewicht)” value (0,2 haemagglutinating units, after day 18, surviving controls kept losing weight) is listed as “langsam von der Infektion erholten”. Further, the “Gewichtsdifferenz zwischen immunisierten Tieren und Kontrolltieren” value (0,2 haemagglutinating units, day 18) is reported as 4 g. Under “100 µg i.v. in 300 µl PBS, after 28 days infected intranasally with 0,4 haemagglutinating units, deaths after 11 days, PBS controls 11 von 12”, the “immunisierte Tiere, die an der Virusinfektion starben” value came to 4 von 12. In addition, the “lebende immunisierte Tiere” value (immunised group infected with 0,2 haemagglutinating units, after 18 days, controls 40 %) came to 75%.
